According to ChEMBL document CHEMBL1148572, “1-((S)-2-aminopropyl)-1H-indazol-6-ol: a potent peripherally acting 5-HT2 receptor agonist with ocular hypotensive activity” (J Med Chem, 2006):
pIC50, pKi: −log10 of the molar value.

How the values were obtained:
[1] = Inhibition of alpha-bungarotoxin insensitive nicotinic receptor at 1 nM
[2] = Inhibition of non selective binding to VIP at 10 uM
[3] = biological target: 5-hydroxytryptamine receptor 2A (Rattus norvegicus, UniProt P14842); format: tissue-based, Cerebral cortex
Chain of 5-hydroxytryptamine receptor 2A (P14842 whole entry): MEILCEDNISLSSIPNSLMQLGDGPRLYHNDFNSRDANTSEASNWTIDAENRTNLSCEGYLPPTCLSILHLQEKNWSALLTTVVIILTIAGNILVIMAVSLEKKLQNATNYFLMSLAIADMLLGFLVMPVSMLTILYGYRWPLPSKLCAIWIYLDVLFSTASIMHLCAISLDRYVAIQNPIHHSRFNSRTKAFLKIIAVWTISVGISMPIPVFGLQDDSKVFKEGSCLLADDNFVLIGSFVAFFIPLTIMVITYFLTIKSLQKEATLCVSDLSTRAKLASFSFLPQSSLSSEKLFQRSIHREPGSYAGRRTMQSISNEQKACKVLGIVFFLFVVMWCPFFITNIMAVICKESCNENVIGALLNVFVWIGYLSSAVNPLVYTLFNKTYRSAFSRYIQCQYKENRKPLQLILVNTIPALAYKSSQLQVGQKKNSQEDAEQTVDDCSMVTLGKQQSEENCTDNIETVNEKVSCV

[4] = biological target: T1, 5-hydroxytryptamine receptor 1A (Homo sapiens) (UniProt P08908); experiment: Inhibition of forskolin activated adenylate cyclase at 10 uM; format: functional
T1 sequence (whole entry): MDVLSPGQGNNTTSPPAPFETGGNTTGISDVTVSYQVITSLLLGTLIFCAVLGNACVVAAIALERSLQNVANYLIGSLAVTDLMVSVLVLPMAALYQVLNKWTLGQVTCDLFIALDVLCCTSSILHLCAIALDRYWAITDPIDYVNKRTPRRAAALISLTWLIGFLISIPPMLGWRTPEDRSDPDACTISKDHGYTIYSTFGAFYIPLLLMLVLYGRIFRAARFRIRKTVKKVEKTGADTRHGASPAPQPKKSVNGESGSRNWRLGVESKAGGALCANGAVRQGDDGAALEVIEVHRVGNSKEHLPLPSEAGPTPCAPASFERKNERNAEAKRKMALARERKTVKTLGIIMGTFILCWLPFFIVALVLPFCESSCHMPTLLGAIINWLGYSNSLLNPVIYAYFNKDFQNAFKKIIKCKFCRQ

[5] = biological target: 5-hydroxytryptamine receptor 5A (Homo sapiens, UniProt P47898); experiment: Inhibitory activity against 5HT5A receptor
Chain of 5-hydroxytryptamine receptor 5A (P47898 whole entry): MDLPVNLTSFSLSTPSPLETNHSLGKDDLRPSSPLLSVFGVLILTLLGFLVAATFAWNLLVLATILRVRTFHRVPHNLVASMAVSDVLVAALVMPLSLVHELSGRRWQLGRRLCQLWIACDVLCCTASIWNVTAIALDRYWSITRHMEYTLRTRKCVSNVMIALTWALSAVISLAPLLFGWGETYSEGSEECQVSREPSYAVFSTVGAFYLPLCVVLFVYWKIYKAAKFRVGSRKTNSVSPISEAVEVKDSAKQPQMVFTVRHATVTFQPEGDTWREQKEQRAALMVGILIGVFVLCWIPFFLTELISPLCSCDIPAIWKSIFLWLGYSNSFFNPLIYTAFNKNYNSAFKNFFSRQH

[6] = biological target: T2, monoamine oxidase B (MAO-B) (Rattus norvegicus, UniProt P19643); experiment: Inhibition of monoamine oxidase B in rat brain at 100 nM; format: tissue-based
T2 sequence (P19643 whole entry): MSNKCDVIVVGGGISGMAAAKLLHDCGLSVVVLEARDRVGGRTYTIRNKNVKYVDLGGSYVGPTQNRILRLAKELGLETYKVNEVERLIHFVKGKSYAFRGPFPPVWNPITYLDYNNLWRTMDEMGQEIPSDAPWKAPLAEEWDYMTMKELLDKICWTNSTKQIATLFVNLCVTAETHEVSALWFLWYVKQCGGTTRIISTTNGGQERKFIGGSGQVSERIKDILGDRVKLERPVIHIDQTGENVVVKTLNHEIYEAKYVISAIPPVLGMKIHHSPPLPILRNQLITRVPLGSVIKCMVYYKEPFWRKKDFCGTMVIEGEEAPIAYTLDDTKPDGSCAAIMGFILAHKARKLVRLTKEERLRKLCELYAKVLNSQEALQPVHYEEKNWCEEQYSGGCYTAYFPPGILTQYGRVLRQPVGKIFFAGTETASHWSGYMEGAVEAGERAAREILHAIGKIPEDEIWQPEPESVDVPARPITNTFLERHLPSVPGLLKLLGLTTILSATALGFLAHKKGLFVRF

[7] = biological target: T3, 5-hydroxytryptamine receptor 2C (Homo sapiens, UniProt P28335); experiment: biochemical
T3 sequence (P28335 whole entry): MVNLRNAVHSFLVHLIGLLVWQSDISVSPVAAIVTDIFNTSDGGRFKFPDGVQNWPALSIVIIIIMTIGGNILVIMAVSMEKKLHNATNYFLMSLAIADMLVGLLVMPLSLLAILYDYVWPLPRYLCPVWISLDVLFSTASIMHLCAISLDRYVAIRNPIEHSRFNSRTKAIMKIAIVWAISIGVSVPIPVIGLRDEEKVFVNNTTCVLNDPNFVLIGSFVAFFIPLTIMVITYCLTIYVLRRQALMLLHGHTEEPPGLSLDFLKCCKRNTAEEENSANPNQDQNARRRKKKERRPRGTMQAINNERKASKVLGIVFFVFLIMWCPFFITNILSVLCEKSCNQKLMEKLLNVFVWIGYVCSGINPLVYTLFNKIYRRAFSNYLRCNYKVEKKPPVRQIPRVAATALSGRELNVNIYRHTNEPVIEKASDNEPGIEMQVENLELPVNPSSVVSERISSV
Description: Displacement of [125I]DOI from cloned human 5HT2C receptor expressed in CHO cells

[8] = biological target: T2, monoamine oxidase B (MAO-B); experiment: Inhibition of monoamine oxidase B in rat brain at 1 nM; format: tissue-based
[9] = biological target: Glutamate receptor ionotropic AMPA (Homo sapiens) (UniProt P48058+P42263+P42262+P42261); experiment: Inhibition of AMPA receptor at 100 nM; format: protein-complex assay
[10] = Half life in phosphate buffer at pH 7.4 in 25 degC; format: ADME
[11] = biological target: T4, Alpha-2C adrenergic receptor (Homo sapiens, UniProt P18825); experiment: Displacement of [3H]clonidine from cloned human adrenergic Alpha-2C receptor expressed in Sf9 cells
T4 sequence (P18825 whole entry): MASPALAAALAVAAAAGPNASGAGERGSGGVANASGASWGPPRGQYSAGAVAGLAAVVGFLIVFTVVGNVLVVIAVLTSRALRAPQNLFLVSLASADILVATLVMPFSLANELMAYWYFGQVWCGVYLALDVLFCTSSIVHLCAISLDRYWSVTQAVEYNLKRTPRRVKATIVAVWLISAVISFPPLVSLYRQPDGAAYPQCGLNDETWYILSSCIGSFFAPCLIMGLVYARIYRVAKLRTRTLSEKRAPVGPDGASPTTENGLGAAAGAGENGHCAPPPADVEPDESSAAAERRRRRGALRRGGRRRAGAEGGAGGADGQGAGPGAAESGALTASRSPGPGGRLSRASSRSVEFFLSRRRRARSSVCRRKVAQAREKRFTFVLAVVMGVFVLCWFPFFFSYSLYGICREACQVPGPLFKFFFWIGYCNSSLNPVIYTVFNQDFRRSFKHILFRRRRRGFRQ

[12] = organism: Homo sapiens; experiment: Inhibition of inositol triphosphate IP3 at 100 nM; format: functional
[13] = Inhibition of P2Y purinergic receptor at 1 nM
[14] = biological target: Dopamine receptor (Homo sapiens) (UniProt P14416+P35462+P21918+P21917+P21728); experiment: Inhibition of non selective binding to dopamine receptor at 1 nM; format: protein assay
[15] = system: MDR1 (P-gp); experiment: Permeability from basolateral to apical side of the MDCK cell transfected with human MDR1; format: ADME, cell-based
[16] = Inhibitory activity at TBOB site in GABA gated chloride channel at 100 nM
[17] = biological target: Voltage-dependent N-type calcium channel subunit alpha-1B (Homo sapiens) (UniProt Q00975); experiment: Inhibitory activity at Calcium channel N type at 10 uM
Chain of Voltage-dependent N-type calcium channel subunit alpha-1B (Homo sapiens) (Q00975 whole entry, looked up): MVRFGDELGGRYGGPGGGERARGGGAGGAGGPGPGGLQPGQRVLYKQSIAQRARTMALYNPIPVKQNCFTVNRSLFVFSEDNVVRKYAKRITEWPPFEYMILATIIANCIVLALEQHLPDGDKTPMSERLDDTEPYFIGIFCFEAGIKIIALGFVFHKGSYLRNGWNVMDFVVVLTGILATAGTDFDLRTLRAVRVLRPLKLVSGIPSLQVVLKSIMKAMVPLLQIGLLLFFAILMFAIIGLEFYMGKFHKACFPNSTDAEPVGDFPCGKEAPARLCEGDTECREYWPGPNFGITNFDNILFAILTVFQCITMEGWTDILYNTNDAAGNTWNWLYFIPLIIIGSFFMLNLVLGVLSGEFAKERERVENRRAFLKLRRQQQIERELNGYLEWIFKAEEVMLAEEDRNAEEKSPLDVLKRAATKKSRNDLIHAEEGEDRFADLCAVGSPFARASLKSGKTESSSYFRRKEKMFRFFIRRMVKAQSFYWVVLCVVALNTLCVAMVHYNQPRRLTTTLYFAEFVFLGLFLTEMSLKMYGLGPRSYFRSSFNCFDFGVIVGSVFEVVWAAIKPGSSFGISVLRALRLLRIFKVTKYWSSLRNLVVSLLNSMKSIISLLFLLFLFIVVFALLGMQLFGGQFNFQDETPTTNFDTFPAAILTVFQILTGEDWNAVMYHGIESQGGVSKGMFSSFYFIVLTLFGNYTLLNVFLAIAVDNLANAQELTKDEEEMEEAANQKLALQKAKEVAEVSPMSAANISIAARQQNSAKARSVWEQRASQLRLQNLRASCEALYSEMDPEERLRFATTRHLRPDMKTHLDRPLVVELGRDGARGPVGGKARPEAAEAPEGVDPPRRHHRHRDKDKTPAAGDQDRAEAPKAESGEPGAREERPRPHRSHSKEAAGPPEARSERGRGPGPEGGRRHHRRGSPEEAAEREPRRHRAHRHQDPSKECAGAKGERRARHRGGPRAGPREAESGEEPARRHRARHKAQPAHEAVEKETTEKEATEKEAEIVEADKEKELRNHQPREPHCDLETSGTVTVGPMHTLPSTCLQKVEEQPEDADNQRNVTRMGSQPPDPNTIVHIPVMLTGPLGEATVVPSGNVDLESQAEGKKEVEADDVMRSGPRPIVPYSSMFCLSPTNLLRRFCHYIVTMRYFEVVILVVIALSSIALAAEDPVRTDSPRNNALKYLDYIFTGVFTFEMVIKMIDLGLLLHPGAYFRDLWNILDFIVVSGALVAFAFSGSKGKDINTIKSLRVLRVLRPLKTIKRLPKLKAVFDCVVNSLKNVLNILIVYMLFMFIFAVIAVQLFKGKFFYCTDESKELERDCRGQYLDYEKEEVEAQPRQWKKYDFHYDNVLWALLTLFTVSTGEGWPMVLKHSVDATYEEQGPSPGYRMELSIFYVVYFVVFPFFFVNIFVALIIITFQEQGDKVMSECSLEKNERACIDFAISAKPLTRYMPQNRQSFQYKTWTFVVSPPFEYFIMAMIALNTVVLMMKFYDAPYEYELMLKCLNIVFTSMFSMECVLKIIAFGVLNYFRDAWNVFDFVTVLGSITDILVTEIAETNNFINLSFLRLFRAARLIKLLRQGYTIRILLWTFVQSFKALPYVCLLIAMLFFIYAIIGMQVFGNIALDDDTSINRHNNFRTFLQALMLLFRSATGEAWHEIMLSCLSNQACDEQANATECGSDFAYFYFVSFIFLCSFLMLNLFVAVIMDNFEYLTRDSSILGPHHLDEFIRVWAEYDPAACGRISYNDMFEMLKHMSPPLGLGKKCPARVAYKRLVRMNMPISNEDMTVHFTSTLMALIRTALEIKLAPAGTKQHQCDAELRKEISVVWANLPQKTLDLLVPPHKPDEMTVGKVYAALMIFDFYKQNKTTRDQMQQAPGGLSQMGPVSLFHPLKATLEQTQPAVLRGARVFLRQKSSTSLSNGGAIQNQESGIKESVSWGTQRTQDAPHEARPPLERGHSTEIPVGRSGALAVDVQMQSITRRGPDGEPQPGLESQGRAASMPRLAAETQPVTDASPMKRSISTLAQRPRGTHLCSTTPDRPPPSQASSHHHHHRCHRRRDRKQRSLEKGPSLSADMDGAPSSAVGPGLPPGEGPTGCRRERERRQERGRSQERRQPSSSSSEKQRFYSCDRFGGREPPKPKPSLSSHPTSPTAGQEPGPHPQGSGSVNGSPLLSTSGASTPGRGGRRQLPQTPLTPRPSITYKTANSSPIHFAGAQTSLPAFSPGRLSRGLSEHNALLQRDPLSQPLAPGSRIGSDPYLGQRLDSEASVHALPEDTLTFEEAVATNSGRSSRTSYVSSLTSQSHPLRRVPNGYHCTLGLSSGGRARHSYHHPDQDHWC

[18] = biological target: Epidermal growth factor receptor (Homo sapiens) (UniProt P00533); experiment: Inhibition of EGFR at 10 uM
Chain of Epidermal growth factor receptor (Homo sapiens) (P00533 whole entry): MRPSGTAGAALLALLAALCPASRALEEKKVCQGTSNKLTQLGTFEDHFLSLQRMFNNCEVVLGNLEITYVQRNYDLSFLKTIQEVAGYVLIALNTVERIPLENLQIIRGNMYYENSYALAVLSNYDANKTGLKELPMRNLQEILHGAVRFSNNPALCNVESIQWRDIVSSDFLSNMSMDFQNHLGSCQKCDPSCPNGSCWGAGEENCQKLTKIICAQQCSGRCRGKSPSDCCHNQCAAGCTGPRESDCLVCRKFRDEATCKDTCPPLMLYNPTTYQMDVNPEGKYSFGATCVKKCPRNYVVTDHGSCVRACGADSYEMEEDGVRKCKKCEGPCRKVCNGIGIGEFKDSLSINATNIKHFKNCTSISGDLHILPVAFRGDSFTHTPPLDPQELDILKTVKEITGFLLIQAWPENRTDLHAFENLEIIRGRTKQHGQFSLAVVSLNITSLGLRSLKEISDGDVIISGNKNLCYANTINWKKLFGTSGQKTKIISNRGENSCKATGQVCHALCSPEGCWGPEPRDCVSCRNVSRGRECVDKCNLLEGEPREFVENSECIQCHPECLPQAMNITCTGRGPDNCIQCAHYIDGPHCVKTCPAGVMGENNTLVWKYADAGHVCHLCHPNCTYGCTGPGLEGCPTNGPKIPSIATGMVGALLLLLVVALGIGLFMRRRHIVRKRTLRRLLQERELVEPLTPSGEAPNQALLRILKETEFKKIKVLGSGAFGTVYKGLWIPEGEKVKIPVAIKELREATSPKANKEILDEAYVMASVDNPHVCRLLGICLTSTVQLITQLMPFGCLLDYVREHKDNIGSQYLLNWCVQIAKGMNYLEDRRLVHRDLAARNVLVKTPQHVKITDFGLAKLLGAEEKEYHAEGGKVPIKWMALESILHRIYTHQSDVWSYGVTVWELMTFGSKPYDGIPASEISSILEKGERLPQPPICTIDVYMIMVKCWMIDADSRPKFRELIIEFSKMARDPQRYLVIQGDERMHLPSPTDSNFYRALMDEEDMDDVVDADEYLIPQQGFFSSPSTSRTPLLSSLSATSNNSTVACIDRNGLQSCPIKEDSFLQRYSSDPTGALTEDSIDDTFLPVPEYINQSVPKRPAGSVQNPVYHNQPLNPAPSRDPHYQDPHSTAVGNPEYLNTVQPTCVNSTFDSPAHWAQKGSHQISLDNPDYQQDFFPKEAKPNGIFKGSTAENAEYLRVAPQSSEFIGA

## C[C@H](N)Cn1ncc2ccc(O)cc21
[1]
  inhibition: 7.15%
[2]
  inhibition: -5.59%
[3]
  pIC50: 9.24
[4]
  inhibition: 4.1%
[5]
  pKi: < 5.00
[6]
  inhibition at 0.1 µM: -20%
[7]
  pKi: 8.52
[8]
  inhibition at 0.001 µM: -15.4%
[9]
  inhibition: 9.45%
[10]
  T1/2: 4.6 yr
[11]
  pKi: 5.33
[12]
  inhibition: 8.56%
[13]
  inhibition: -2.2%
[14]
  inhibition: 10.7%
[15]
  Papp B→A: 0.88 ×10⁻⁶ cm/s
[16]
  inhibition: -5.9%
[17]
  inhibition: 15.4%
[18]
  inhibition: -5.17%
